Experimental data published in ChEMBL document CHEMBL1137273, “Xanthine mimetics as potent dipeptidyl peptidase IV inhibitors” (Bioorg Med Chem Lett, 2006).

Legend:
[1] = target: T1, Dipeptidyl peptidase 4 (Homo sapiens, UniProt P27487); experiment: Inhibition of h-DPPIV
[2] = target: Dipeptidyl peptidase 8 (Homo sapiens, UniProt Q6V1X1); experiment: Inhibition of h-DPP8
[3] = target: T2, Prolyl endopeptidase (Homo sapiens, UniProt P48147); experiment: Inhibition of h-POP
T2 sequence (P48147 whole entry): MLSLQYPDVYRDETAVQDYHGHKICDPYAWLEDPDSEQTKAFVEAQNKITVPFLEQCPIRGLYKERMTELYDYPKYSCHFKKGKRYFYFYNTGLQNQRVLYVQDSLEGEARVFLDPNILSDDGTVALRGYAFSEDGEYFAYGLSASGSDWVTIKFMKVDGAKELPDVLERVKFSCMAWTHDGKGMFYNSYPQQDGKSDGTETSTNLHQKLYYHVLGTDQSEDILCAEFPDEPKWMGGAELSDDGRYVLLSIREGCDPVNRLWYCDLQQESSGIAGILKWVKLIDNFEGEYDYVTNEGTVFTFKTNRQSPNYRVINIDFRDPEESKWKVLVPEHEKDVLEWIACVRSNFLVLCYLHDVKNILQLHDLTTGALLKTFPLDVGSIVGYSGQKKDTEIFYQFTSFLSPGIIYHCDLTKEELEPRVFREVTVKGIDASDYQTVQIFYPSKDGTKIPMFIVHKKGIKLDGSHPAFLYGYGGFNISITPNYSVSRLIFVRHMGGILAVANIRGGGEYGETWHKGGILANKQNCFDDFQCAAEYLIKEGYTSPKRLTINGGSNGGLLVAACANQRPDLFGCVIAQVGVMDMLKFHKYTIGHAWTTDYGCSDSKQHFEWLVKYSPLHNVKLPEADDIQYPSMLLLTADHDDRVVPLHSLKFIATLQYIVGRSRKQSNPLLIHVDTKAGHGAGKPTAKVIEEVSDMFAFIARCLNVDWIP

[4] = target: T1, Dipeptidyl peptidase 4; experiment: Human DPPIV plasma binding (0% plasma); assay type: cell-free
[5] = target: Dipeptidyl peptidase 9 (Homo sapiens, UniProt Q86TI2); experiment: Inhibition of h-DPP9
Sequence of Dipeptidyl peptidase 9 (Q86TI2 whole entry): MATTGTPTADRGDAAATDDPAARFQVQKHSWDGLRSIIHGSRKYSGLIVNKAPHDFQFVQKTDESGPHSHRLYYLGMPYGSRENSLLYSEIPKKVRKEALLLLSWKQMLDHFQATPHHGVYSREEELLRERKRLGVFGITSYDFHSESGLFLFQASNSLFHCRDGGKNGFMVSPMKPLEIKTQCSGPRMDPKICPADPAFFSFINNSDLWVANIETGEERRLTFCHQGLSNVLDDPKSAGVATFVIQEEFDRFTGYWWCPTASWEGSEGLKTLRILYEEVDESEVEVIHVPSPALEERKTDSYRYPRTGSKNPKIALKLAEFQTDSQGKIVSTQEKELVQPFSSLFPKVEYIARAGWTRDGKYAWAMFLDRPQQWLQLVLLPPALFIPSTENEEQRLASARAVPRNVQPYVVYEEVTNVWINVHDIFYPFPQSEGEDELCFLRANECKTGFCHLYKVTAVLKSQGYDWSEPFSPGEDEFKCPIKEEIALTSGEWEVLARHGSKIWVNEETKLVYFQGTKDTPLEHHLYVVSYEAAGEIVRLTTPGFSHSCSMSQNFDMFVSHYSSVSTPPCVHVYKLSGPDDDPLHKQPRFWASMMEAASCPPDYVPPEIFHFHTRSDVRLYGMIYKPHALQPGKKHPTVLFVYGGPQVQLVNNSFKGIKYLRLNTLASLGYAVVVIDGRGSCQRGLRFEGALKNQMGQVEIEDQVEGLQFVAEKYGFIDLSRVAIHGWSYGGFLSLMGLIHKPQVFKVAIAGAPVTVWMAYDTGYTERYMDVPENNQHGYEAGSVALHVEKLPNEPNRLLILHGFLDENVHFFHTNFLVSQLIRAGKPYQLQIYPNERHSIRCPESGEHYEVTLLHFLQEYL

Sequence of Dipeptidyl peptidase 8 (Q6V1X1 whole entry): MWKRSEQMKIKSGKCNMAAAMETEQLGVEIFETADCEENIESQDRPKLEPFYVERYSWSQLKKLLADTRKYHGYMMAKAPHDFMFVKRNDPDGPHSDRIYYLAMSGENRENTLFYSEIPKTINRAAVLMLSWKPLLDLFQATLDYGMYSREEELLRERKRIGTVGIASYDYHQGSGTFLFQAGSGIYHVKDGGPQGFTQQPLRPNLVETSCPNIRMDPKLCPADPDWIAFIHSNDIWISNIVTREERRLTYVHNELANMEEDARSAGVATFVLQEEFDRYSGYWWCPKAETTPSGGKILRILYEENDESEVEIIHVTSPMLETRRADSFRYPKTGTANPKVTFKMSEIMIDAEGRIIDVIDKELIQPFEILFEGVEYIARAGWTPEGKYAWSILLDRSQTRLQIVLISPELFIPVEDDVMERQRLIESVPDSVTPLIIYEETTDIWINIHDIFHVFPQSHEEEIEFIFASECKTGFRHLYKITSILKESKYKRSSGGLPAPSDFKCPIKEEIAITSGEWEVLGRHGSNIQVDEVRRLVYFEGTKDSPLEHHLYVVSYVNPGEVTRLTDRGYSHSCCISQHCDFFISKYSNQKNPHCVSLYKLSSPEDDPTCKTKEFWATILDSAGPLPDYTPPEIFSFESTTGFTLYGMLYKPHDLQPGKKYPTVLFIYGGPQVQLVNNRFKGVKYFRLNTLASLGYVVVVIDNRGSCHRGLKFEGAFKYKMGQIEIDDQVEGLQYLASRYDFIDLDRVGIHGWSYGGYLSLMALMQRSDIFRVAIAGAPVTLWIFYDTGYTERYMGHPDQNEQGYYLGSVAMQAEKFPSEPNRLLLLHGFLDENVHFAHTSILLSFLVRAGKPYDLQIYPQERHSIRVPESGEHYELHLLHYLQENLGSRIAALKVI
T1 sequence (P27487 whole entry): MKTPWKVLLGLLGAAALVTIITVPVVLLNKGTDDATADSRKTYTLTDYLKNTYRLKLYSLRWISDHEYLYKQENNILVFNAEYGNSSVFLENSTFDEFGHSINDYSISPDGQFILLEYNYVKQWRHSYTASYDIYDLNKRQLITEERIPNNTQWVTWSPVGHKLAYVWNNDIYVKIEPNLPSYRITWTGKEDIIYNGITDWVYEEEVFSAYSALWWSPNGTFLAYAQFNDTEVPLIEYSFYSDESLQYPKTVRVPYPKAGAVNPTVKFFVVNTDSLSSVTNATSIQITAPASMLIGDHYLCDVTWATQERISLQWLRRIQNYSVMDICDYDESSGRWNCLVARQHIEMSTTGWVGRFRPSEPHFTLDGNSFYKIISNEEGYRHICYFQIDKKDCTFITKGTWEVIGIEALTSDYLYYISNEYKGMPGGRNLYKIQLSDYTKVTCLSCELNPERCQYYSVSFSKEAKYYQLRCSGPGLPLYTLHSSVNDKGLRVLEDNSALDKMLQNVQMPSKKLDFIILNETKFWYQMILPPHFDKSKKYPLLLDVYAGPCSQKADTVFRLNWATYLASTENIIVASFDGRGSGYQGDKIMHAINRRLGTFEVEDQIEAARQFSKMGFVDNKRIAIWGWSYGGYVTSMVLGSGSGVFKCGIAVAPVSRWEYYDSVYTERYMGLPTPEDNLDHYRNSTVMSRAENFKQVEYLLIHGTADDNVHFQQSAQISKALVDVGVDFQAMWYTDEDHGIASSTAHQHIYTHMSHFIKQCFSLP

SMILES	Ki [1]	Ki [2]	Ki [3]	Ki [4]	Ki [5]	IC50 [1]
Cn1ncc2c(nc(N3CCCC(N)C3)n2Cc2ccccc2C#N)c1=O (stereo not drawn)	260 nM					
Cn1ncc2nc(N3CCCC(N)C3)n(Cc3cccc(CC#N)c3)c2c1=O (stereo not drawn)	11 nM	> 3000 nM	> 30000 nM			
Cn1c(=O)c2nc(N3CCCC(N)C3)n(Cc3ccccc3C#N)c2c(=O)n1C (stereo not drawn)			> 30000 nM			
Cn1c(=O)c2c(nc(N3CCCC(N)C3)n2Cc2ccccc2C#N)n(C)c1=O (stereo not drawn)	2 nM	> 30000 nM	> 30000 nM	2 nM		
CN1C(=O)c2nc(N3CCCC(N)C3)n(Cc3ccccc3C#N)c2C1=O (stereo not drawn)			> 30000 nM		> 3000 nM	
NC1CCCN(c2nc3c(n2Cc2ccccc2C(F)(F)F)C(=O)c2ccccc2C3=O)C1 (stereo not drawn)	25 nM	> 30000 nM			> 3000 nM	
Cn1ncc2nc(N3CCCC(N)C3)n(Cc3ccccc3C#N)c2c1=O (stereo not drawn)	5 nM	> 3000 nM	> 30000 nM			
CN1C(=O)C=C(N2CCC[C@@H](N)C2)C(Cc2ccccc2C#N)C1=O (stereo partly drawn)						4 nM
